Survival data for 17 substances are collected here from ChEMBL document CHEMBL4665541, “Search for new therapeutic options for the uncommon pathogen Mycobacterium chimaera: an open drug discovery approach” (Lancet Microbe, 2021).

Holding throughout (type): functional, organism-based
Design in all cases: conc 20 uM

Assay [1] relates to Mycobacterium tuberculosis. Kind of assay: (§1) Inhibition of mycobacterial growth using the resazurin microtitre cell viability assay (REMA), compounds at final concentration of 20 µM (2% v/v DMSO). Hits were classed as compounds that inhibited bacterial growth by 70% or more compared to drug-free controls. The following applies: H37Rv.
Assay [2] has as its system Mycobacteroides abscessus. The description is as §1. The following applies: ATCC19977.
In assay [3] the test system is Mycobacterium intracellulare subsp. chimaera. Described as §1. As to conditions: NCTC13781.

For MMV020670, the Survival in assay [1] is 99.7%; in assay [2], 110%; in assay [3], 93%.

As for MMV688845, the values for the Survival in assay [1], in assay [2] and in assay [3] were 6.47%, 24.1% and 1.95%, respectively.

MMV676539: the values for the Survival in assay [1], in assay [2] and in assay [3] were 29.7%, 99.7% and 95.1%, respectively.

With MMV020291, the Survival was 90.7% in assay [1], 121% in assay [2] and 103% in assay [3].

As to MMV675969, the Survival in assay [1] was 95.8%; in assay [2] it was 93.7%; in assay [3] it was 107%.

For MMV676379, the Survival in assay [1] was 98%; in assay [2], 116%; in assay [3], 87.9%.

MMV688553: the Survival is 54% in assay [1], 105% in assay [2] and 91.3% in assay [3].

As to MMV688327, the Survival in assay [1] was 7.39%; in assay [2], 18.6%; in assay [3], -1.9%.

On to MMV020623, for which the Survival in assay [1] is 107%; in assay [2], 118%; in assay [3], 111%.

For MMV153413, the Survival was 26.5% in assay [1], 111% in assay [2] and 9.37% in assay [3].

As to MMV687813, the Survival in assay [1] is 5.59%; in assay [2], 102%; in assay [3], 34.4%.

Regarding MMV689243, the Survival in assay [1] was 82.6%; in assay [2], 113%; in assay [3], 110%.

In the case of MMV676509, the Survival was 85.9% in assay [1], 113% in assay [2] and 89.8% in assay [3].

For the substance MMV676881, the figures for the Survival in assay [1], in assay [2] and in assay [3] were 98.9%, 99.4% and 101%, respectively.

In the case of MMV019993, the Survival is 97% in assay [1], 95.9% in assay [2] and 98.9% in assay [3].

As to MMV688762, the Survival is 89% in assay [1], 121% in assay [2] and 96.2% in assay [3].

Regarding MMV688270, the figures for the Survival in assay [1], in assay [2] and in assay [3] were 83%, 101% and 98.1%, respectively.
